One data set concerns subclone 2 cells. Description: Boyden chamber migration assay. It counts as cell-based, human. The procedure:
Boyden chamber assay. Different sub-clones were grown up to 100% confluency and then gently trypsinized with 0.05% trypsin-EDTA and 100,000 cells were plated in upper chamber of a […] containing transwell filter with 0.5% FBS containing media. Full serum (10% FBS) containing media was added to the lower chamber as chemoattractant. After 16 hours, a colorimetric assay was used to determine the migration of cells to the lower side of the filter, with absorbance read at 590 nm. Briefly, lower sides of the transwell were washed with 1×PBS and then fixed with ice cold methanol for 10 minutes. After gentle washes with 1×PBS, lower side of the filter were stained with Crystal violet solution (0.5% Crystal Violet in 20% Ethanol), washed and the stain was extracted with methanol. Result was normalized against migration of sub-clone 5 cells. For cell migration in presence of pharmacological compounds, cells at 100% confluency were pretreated for 24 hours with or without MB5, PP2 (Sigma-Aldrich, Catalogue No P0042) or FAK inhibitor I (Millipore, Catalogue No. 324877) and then assay was performed as described above.

In data set [1] the test system is DU145 or α1 knockdown cells (KD) xenograft. Description: tumor xenograft of DU145 or α1 KD cells in NOD/SCID mice. It counts as in vivo, mouse. On the procedure:
Mice studies. Animal protocols were approved by an Institutional Animal Care and Use Committee (IACUC) according to NIH guidelines. Tumor xenografts were established by subcutaneous injection of 5×10^6 cancer cells into the left and right flanks of 10-week-old male NOD/SCID mice (Charles River). Tumor length (L) and width (W) were measured with calipers weekly and tumor volume was estimated as V=(L×W^2)/2. After the tumor volumes reached approximately 100 mm^3, mice were sacrificed and tumors were harvested. Half of the tumors were used for protein extraction and the other half were digested with collagenase I solution (SIGMA) to isolate cancer cells.
For MB5 treatment, after tumor volume reached approximately 100 mm^3, mice were injected peritoneally with DMSO or MB5 at 20 mg/kg or 10 mg/kg daily and further monitored for tumor growth weekly. At the end of treatment period (about 2-3 weeks), tumors were harvested and tumor lysates were analyzed for protein expression by Western blot.
The therapeutic potential of MB5 in a tumor xenograft model was first tested by injecting DU145 or corresponding α1 knockdown cells (KD) into the right or left flank of 10-week-old NOD/SCID mice. The tumor growth was monitored twice weekly. Once the tumors reached a volume of approximately 100 mm^3, the animals received daily injections of MB5 at 20 mg/kg intraperitoneally for 3.5 weeks. […] Next, it was determined whether MB5 could decrease tumor growth of highly aggressive subclones derived from DU145. […] FIG. 26E summarizes the effect of MB5 treatment on all types of xenografted tumor growth from DU145 and derivative cell lines.

Data set [2] in a line: pharmacokinetic (PK) and toxicity study in a mouse model. Type of data set: in vivo.
The subject of the next data set is P450 enzymes. Description: metabolism by P450 enzymes. It counts as in vitro ADME.

For the compound `O=c1c2cccc(O)c2oc2c(O)c(O)ccc12` [MB5], in the data set on subclone 2 cells (Boyden chamber assay, clone 2), the “inhibition of migration of cancer cells” value is given as “about 50%”. The “cell migration compared with PP2 and FAK inhibitor” value in the data set on subclone 2 cells (clone 2) is given as “as effectively as other kinase inhibitors”. In the data set with subclone 2 cells (pretreatment with 100 nM for 24 hours, subclone 2), the “reduction of cell migration” value is on record as 50%. For the same compound, the “reduction of tumor growth” value in data set [1] (20 mg/kg daily intraperitoneally for 3.5 weeks, DU145 and KD groups) is recorded as “about 70%”. Besides, in data set [1] (20 mg/kg, NOD/SCID mice), the bodyweight result is reported as “without significantly affecting bodyweight”. In addition, the tumor growth result in data set [1] (20 mg/kg/day, DU145 or KD cells) is reported as “reduces tumor growth”; in data set [1] (all tested cell lines xenografted into NOD/SCID mice) it was “significantly reduced tumor growth from all tested cell lines”. For the same compound, the “systemic exposure level versus dose” value in data set [2] (50-200 mg/kg after oral administration) was “proportional to dose level”. The toxic effects entry in data set [2] (after more than 1 month of administration) was “No detectable toxic effects”. Further, the “removal by secondary metabolism” value in data set [2] (most likely by UGT enzymes) was “quickly removed by secondary metabolism”. In addition, the toxicity result in data set [2] (mouse, in vivo) is given as “quite non-toxic”. Also, the “metabolism by P450 enzymes” value in the data set with P450 enzymes is listed as “not metabolized significantly”.

These data come from patent US20230130102A1, “Na/K-ATPase LIGANDS AND USE THEREOF FOR TREATMENT OF CANCER” (Marshall University Research Corporation, priority 2019, published 2023).
